pEC50, pIC50: −log10 of the molar value. Where two headings read alike, the source gives them in different places.
What was measured:
[1] = system: HIV-1; assay: NCI in vitro anti-HIV drug screen: XTT-formazan assay, protection of T4 lymphocytes (CEM) from HIV-1 cytopathic effects; format: cell-based, human immunodeficiency virus (HIV-1); settings: for pEC50: 144 h, HIV-1 infected CEM cells, 6 days, XTT, approximate values, read-out: EC50 (50% effective concentration against HIV cytopathic effects); for inhibition at 20 µM / activity at 20 µM: dose 2.00 × 10^-5 Molar; for inhibition at 2 µM / activity at 2 µM: dose 2.00 × 10^-6 Molar; for inhibition at 0.2 µM / activity at 0.2 µM: dose 2.00 × 10^-7 Molar; for TI50 (IC/EC), Therapeutic Index: IC50/EC50; for inhibition at 200 µM / activity at 200 µM: dose 2.00 × 10^-4 Molar; for inhibition at 63.2 µM / activity at 63.2 µM: dose 6.32 × 10^-5 Molar; for inhibition at 6.33 µM / activity at 6.33 µM: dose 6.33 × 10^-6 Molar
Description: Compounds of the present invention were evaluated for anti-HIV efficacy by the National Cancer Institute's (NCI) In Vitro Anti AIDS Drug Discovery Program.
(§1) The NCI procedure is fully described, for example, in a bulletin provided by the National Institutes of Health, National Cancer Institute, Bethesda, Md. 20892, all of which is incorporated herein by reference. As related in the NCI bulletin, the procedure is based on O. W. Weislow et al., "New soluble-formazan assay for HIV-1 cytopathic effects: application to high flux screening of synthetic and natural products for AIDS-antiviral activity", J. Natl. Cancer Inst. 81:577-586 (1989), and is used to test for compounds active against human immunodeficiency virus (HIV), and is designed to detect compounds active at any stage of the virus reproductive cycle. As further related in the NCI bulletin, the assay includes killing of T4 lymphocytes by HIV. Amounts of HIV are added to cells, with a minimum of two cycles of virus reproduction found to be necessary to obtain the required cell killing. Compounds that interact with virions, cells, or virus gene-products to interfere with viral activities will protect cells from cytolysis. All were compared with a positive (e.g., AZT-treated) control evaluation at the same time under identical conditions. The procedure is set forth as follows:
(§2) A candidate compound is first dissolved in a suitable solvent, preferably dimethyl sulfoxide, then diluted 1:100 in cell culture medium before preparing serial half-log10 dilutions. T4 lymphocytes (CEM cell line) are then added and after a brief interval HIV-1 is added, resulting in a 1:200 final dilution of the compound. Uninfected cells with the compound serve as a toxicity control, and infected and uninfected without the compound serve as basic controls. Cultures are then incubated at 37° in a 5% carbon dioxide atmosphere for 6 days. The tetrazolium salt, XTT, is added to all wells, and cultures are incubated to allow formazan color development by viable cells. Individual wells are analyzed spectrophotometrically to quantitate formazan product, and in addition are viewed microscopically for detection of viable cells and confirmation of protective activity. Drug-treated virus-infected cells are compared with drug-treated noninfected cells and with other appropriate controls (untreated infected and untreated noninfected cells, drug-containing wells without cells, etc.) on the same plate. Data are reviewed in comparison with other tests performed at the same time and a determination as to activity is made.

[2] = system: T4 lymphocytes (CEM cell line); assay: Cell growth / toxicity control in uninfected T4 lymphocytes (CEM), XTT-formazan; format: cell-based; settings: Homo sapiens, CCRF-CEM; for pIC50: 144 h, approximate values; for activity at 20 µM: dose 2.00 × 10^-5 Molar; for activity at 2 µM: dose 2.00 × 10^-6 Molar; for activity at 0.2 µM: dose 2.00 × 10^-7 Molar; for activity at 200 µM: dose 2.00 × 10^-4 Molar; for activity at 63.2 µM: dose 6.32 × 10^-5 Molar; for activity at 6.33 µM: dose 6.33 × 10^-6 Molar; for activity at 0.634 µM: dose 6.34 × 10^-7 Molar; for activity at 0.0635 µM: dose 6.35 × 10^-8 Molar
From the text: as §1, §2

[3] = Human immunodeficiency virus 1, CCRF-CEM
[4] = Human immunodeficiency virus 1, CCRF-CEM, read-out: Percent of Protection
[5] = Human immunodeficiency virus 1, Lymphocyte, read-out: Percent of Control, Infected
[6] = uninfected CEM cells, 6 days, XTT, read-out: IC50 (50% inhibitory concentration for cell growth)
[7] = read-out: Percent of Control, Uninfected
[8] = Human immunodeficiency virus 1, Lymphocyte, dose 6.34 × 10^-7 Molar, read-out: Percent of Control, Infected
[9] = Human immunodeficiency virus 1, Lymphocyte, dose 6.35 × 10^-8 Molar, read-out: Percent of Control, Infected

Row | SMILES | pEC50 [1, 3] | inhibition at 20 µM [1, 4] | inhibition at 2 µM [1, 4] | inhibition at 0.2 µM [1, 4] | activity at 20 µM [1, 5] | activity at 2 µM [1, 5] | activity at 0.2 µM [1, 5] | TI50 (IC/EC), Therapeutic Index [1] | pIC50 [2, 6] | activity at 20 µM [2, 7] | activity at 2 µM [2, 7] | activity at 0.2 µM [2, 7] | inhibition at 200 µM [1, 4] | inhibition at 63.2 µM [1, 4] | inhibition at 6.33 µM [1, 4] | activity at 200 µM [1, 5] | activity at 63.2 µM [1, 5] | activity at 6.33 µM [1, 5] | activity at 0.634 µM [1, 8] | activity at 0.0635 µM [1, 9] | further results
1 | CNc1c(Cl)cccc1S(=O)(=O)c1ccccc1[N+](=O)[O-] [Compound 78, 2-(2-nitrophenylsulfonyl)-6-chloro-N-methylaniline] | 6.66 | 89.5% | 93.9% | 45.9% | 89.8% | 94.1% | 47% | > 9.08 × 10^+1 | < 4.70 | 85.5% | 85.6% | 85.2% |  |  |  |  |  |  |  |  | inhibition at 0.02 µM ([1]; Human immunodeficiency virus 1, CCRF-CEM, dose 2.00 × 10^-8 Molar, read-out: Percent of Protection): 8.88%; inhibition at 6.32 µM ([1]; Human immunodeficiency virus 1, CCRF-CEM, dose 6.32 × 10^-6 Molar, read-out: Percent of Protection): 96%; inhibition at 0.633 µM ([1]; Human immunodeficiency virus 1, CCRF-CEM, dose 6.33 × 10^-7 Molar, read-out: Percent of Protection): 100%; inhibition at 0.0634 µM ([1]; Human immunodeficiency virus 1, CCRF-CEM, dose 6.34 × 10^-8 Molar, read-out: Percent of Protection): 12.2%; inhibition at 0.00635 µM ([1]; Human immunodeficiency virus 1, CCRF-CEM, dose 6.35 × 10^-9 Molar, read-out: Percent of Protection): 2.69%; activity at 0.02 µM ([1]; Human immunodeficiency virus 1, Lymphocyte, dose 2.00 × 10^-8 Molar, read-out: Percent of Control, Infected): 10.7%; activity at 6.32 µM ([1]; Human immunodeficiency virus 1, Lymphocyte, dose 6.32 × 10^-6 Molar, read-out: Percent of Control, Infected): 96%; activity at 0.633 µM ([1]; Human immunodeficiency virus 1, Lymphocyte, dose 6.33 × 10^-7 Molar, read-out: Percent of Control, Infected): 100%; activity at 0.0634 µM ([1]; Human immunodeficiency virus 1, Lymphocyte, dose 6.34 × 10^-8 Molar, read-out: Percent of Control, Infected): 13.9%; activity at 0.00635 µM ([1]; Human immunodeficiency virus 1, Lymphocyte, dose 6.35 × 10^-9 Molar, read-out: Percent of Control, Infected): 4.64%; activity at 0.02 µM ([2]; dose 2.00 × 10^-8 Molar, read-out: Percent of Control, Uninfected): 92.2%; activity at 6.32 µM ([2]; dose 6.32 × 10^-6 Molar, read-out: Percent of Control, Uninfected): 91.5%; activity at 0.633 µM ([2]; dose 6.33 × 10^-7 Molar, read-out: Percent of Control, Uninfected): 86.4%; activity at 0.0634 µM ([2]; dose 6.34 × 10^-8 Molar, read-out: Percent of Control, Uninfected): 87.4%; activity at 0.00635 µM ([2]; dose 6.35 × 10^-9 Molar, read-out: Percent of Control, Uninfected): 88.5%
2 | CCNc1ccccc1S(=O)(=O)c1ccccc1[N+](=O)[O-] [Compound 81, 2-(2-NITROPHENYLSULFONYL)-N-ETHYLANILINE] | 5.63 | 53.6% | 46.1% | 1.5% | 68.5% | 63.3% | 33% | 1.39 × 10^+1 | 4.49 | 68.6% | 89% | 70.7% | 17.2% | -15% | 81.4% | 43.7% | 21.8% | 87.3% | 53.3% | 36.1% | inhibition at 0.634 µM ([1]; Human immunodeficiency virus 1, CCRF-CEM, dose 6.34 × 10^-7 Molar, read-out: Percent of Protection): 31.3%; inhibition at 0.0635 µM ([1]; Human immunodeficiency virus 1, CCRF-CEM, dose 6.35 × 10^-8 Molar, read-out: Percent of Protection): 5.99%; activity at 200 µM [2, 7]: 13.7%; activity at 63.2 µM [2, 7]: 23.6%; activity at 6.33 µM [2, 7]: 83.1%; activity at 0.634 µM [2, 7]: 89.4%; activity at 0.0635 µM [2, 7]: 93.7%
3 | O=S(=O)(c1ccccc1)c1cccc2c1NCCC2 [Compound 45, 8-(phenylsulfonyl)-1,2,3,4-tetrahydroquinoline] | 4.85 | 67% | 2.49% | 0.38% | 67.7% | 4.44% | 2.37% | 1.43 × 10^+1 |  | 101% | 93.3% | 84.2% | 42.2% | 59.8% | 13.3% | 43.3% | 60.6% | 15.1% | 2.22% | 0.49% | inhibition at 0.634 µM ([1]; Human immunodeficiency virus 1, CCRF-CEM, read-out: Percent of Protection, dose 6.34 × 10^-7 Molar): 0.22%; inhibition at 0.0635 µM ([1]; Human immunodeficiency virus 1, CCRF-CEM, read-out: Percent of Protection, dose 6.35 × 10^-8 Molar): -1.54%; pIC50 ([2]; read-out: IC50 (50% inhibitory concentration for cell growth), uninfected CEM cells, 6 days, XTT): < 3.70; activity at 200 µM [2, 7]: 62.1%; activity at 63.2 µM [2, 7]: 74.2%; activity at 6.33 µM [2, 7]: 94.3%; activity at 0.634 µM [2, 7]: 89.7%; activity at 0.0635 µM [2, 7]: 87.2%

— US6303630A, “Diarylsulfone non-nucleoside reverse transcriptase inhibitors of human immunodeficiency virus” (University of the Sciences in Philadelphia, priority 2000, dated 2001)
